Measurements: patent publication US9962351B2, “Small molecule substance for improving sensitivity of bacteria to antibiotics” (priority 2012, dated 2018)
Where “and” joins values, the source holds several entries; their conditions need not be identical. Equal values may be shown once. Read-outs that look alike come from different tables or passages of the source.

Legend:
[1] = test system: penicillin-resistant Escherichia coli (4 antibiotic resistant bacteria); test: Viable counts and survival rate of penicillin-resistant bacteria with 4 penicillins; type: cell-based; settings: 20 mM glutamine with ampicillin 320 μg/mL, penicillin G 2560 μg/mL, amoxicillin 512 μg/mL or carbenicillin 320 μg/mL, 4 hours
Experimental: To investigate whether the sensitivity of Escherichia coli and antibiotic resistant Escherichia coli to penicillin antibiotics was improved with glutamine, the samples of control bacteria and penicillin-resistant bacteria were prepared according to Embodiment 2.1. The viable counts and survival rate of bacteria were calculated after added with 20 mM glutamine and 4 kinds of penicillins (does for control bacteria were: ampicillin 25 μg/mL, penicillin G 200 μg/mL, amoxicillin 20 μg/mL, carbenicillin 100 μg/mL; does for antibiotic resistant bacteria were: ampicillin 320 μg/mL, penicillin G 2560 μg/mL, amoxicillin 512 μg/mL, carbenicillin 320 μg/mL) for 4 hours. […] The sensitivity of control bacteria increased 38-1000 times and 71-1900 times for 4 antibiotic resistant bacteria when added with glutamine.

[2] = test system: Escherichia coli K12 BW25113 (control bacteria); test: Viable counts and survival rate of control bacteria; type: cell-based; settings: 4 hours
Experimental: (§1) The viable counts and survival rate of bacteria were calculated after added with 20 mM glutamine and 160 μg/mL ampicillin for 4 hours.
The viable counts and survival rate of bacteria were calculated after added with 20 mM glutamine and 4 kinds of penicillins (does for control bacteria were: ampicillin 25 μg/mL, penicillin G 200 μg/mL, amoxicillin 20 μg/mL, carbenicillin 100 μg/mL; does for antibiotic resistant bacteria were: ampicillin 320 μg/mL, penicillin G 2560 μg/mL, amoxicillin 512 μg/mL, carbenicillin 320 μg/mL) for 4 hours.
The viable counts and survival rate of bacteria were calculated after added with 20 mM glutamine and antibiotics at the concentration of 8 times of MIC for 4 hours.

[3] = test system: 6 species of antibiotic resistant Escherichia coli (GEN-R, AMP-R, BLFX-R, KAN-R, NA-R and CAZ-R); settings: 20 mM glutamine plus 8 μg/mL balofloxacin, 50 μg/mL gentamicin, 160 μg/mL nalidixic acid, ceftazidime, kanamycin or ampicillin; 4 h
Experimental: (§2) Bacterium cultures of 20 mL were collected and centrifuged at 8,000 rpm for 5 minutes. The bacterial pellets were washed with equal volume of 0.85% saline solution, suspended in M9 medium containing 10 mM sodium acetate and then adjusted to OD600 of 0.5. […] These mixtures were cultured in a shaker at 200 rpm at 37° C. for 4 h. Then 100 μL of bacterial suspension was used for bacterial plate counting.

[4] = test system: ampicillin-resistant Escherichia coli biofilm; test: Mouse urinary tract catheter biofilm model, bacterial survival rate in biofilm; type: in vivo; settings: mice, tail intravenous injection twice-daily for 3 days; glutamine 100 mg kg−1, glucose 100 mg kg−1, ampicillin 320 mg kg−1 as present
Experimental: (§3) Single clone of ampicillin-resistant Escherichia coli was selected and incubated in LB medium overnight, then transferred into 2 mL fresh LB medium according to the proportion of 1:200 dilutions and transferred to 6 mm ultraviolet sterilized PE-50 catheters. The catheters were inoculated in 1 mL LB at 37 for 24 h. The culture medium was changed every 24 hours for 3 days. The biofilm of ampicillin-resistant bacteria in PE50 catheters were washed with 1 mL sterile phosphate-buffered saline five times to remove loosely adherent cells, and then transferred to 1.5 mL EP tubes.
In vivo experiments in mice, female mice (5 weeks, weighing 18-20 g) received surgical implantation in the urinary tract of PESO catheter tubes. The mice were randomly divided into six groups in 48 h after the surgery, five each group. The six groups included treatment with saline (group 1), 100 mg kg^−1 glutamine (group 2), 320 mg kg^−1 ampicillin (group 3), 100 mg kg^−1 glutamine plus 320 mg kg^−1 ampicillin (group 4), 100 mg kg^−1 glucose plus 320 mg kg^−1 ampicillin (group 5), and 100 mg kg^−1 glutamine and 100 mg kg^−1 glucose plus 320 mg kg^−1 ampicillin (group 6) by tail intravenous injection for 3 days, twice-daily. Catheter tubes were extracted in 24 hours after the last treatment. […] The survival rate was calculated as: viable counts in treatment group/viable counts in control group×100%.

[5] = test system: ampicillin-resistant Escherichia coli (AMP-R); type: cell-based; settings: 20 mM glutamine; for killing efficiency increase compared with the treatment without glutamine: 4 hours
Experimental: as §2
To investigate the effect of antibiotic dose on the sensitivity of bacteria to antibiotics by glutamine, 20 mM glutamine and 20, 40, 80, 160, 240, 320 and 400 μg/mL ampicillin were used to treat ampicillin-resistant Escherichia coli for 4 hours, and then bacterial plate counting was conducted. The survival rates of bacteria with and without glutamine were compared at the same antibiotic concentration.
To investigate the effect of exposure time on the killing efficiency, the viable counts of bacteria were counted during 1-8 hours after spiked with 20 mM glutamine and 160 μg/mL ampicillin.
To investigate the effect of glutamine concentration on killing efficiency and the optimum bactericidal concentrations, different concentrations of glutamine were added to 160 μg/mL ampicillin. The number of live bacteria was counted after 4 hours. The survival rate was calculated according to the formula below: viable counts at different concentration of glutamine/viable counts without glutamine×100%.
Single clone of ampicillin-resistant Escherichia coli was selected and inoculated in 100 mL LB medium and cultured at 200 rpm at 37° C. for 16 hours. Bacterial suspension of 20 mL was collected and centrifuged at 8,000 rpm for 5 min. The resulting bacterial pellets were washed with equal volume of 0.85% saline solution, suspended in M9 medium containing 10 mM sodium acetate and then adjusted to […] of 0.5. Aliquots of 5 mL bacterial cells were transferred to test tubes for further application.
The sample was added with 160 μg/mL ampicillin and 0-20 Mm glucose, then cultured in a shaker at 200 rpm at 37° C. for 4 hours. The cell number was counted and survival rate was calculated. […]

[6] = test system: antibiotic-resistant bacteria in kidneys; test: Mouse urinary tract infection model, bacterial content in kidneys; type: in vivo; settings: mice, tail i.v. twice-daily for 3 days; glutamine 100 mg kg−1, glucose 100 mg kg−1, ampicillin 320 mg kg−1 as present; saline group 16750
Experimental: In vivo experiments in mice, female mice (5 weeks, weighing 18-20 g) received surgical implantation in the urinary tract of PESO catheter tubes. The mice were randomly divided into six groups in 48 h after the surgery, five each group. The six groups included treatment with saline (group 1), 100 mg kg^−1 glutamine (group 2), 320 mg kg^−1 ampicillin (group 3), 100 mg kg^−1 glutamine plus 320 mg kg^−1 ampicillin (group 4), 100 mg kg^−1 glucose plus 320 mg kg^−1 ampicillin (group 5), and 100 mg kg^−1 glutamine and 100 mg kg^−1 glucose plus 320 mg kg^−1 ampicillin (group 6) by tail intravenous injection for 3 days, twice-daily. Catheter tubes were extracted in 24 hours after the last treatment. To dislodge biofilm cells, catheters were suspended in saline solution with ultrasonic. Serial dilutions and spot-plating were performed to determine the bacterial survival rate in biofilm. The survival rate was calculated as: viable counts in treatment group/viable counts in control group×100%.
Meanwhile, kidneys of mice were homogeneous with appropriate amount of saline. Bacterial content in kidneys was determined by plate counting method.

[7] = test system: eight species of antibiotic resistant Escherichia coli; test: Viable counts and survival rate of several antibiotic resistant bacteria with ampicillin; type: cell-based; settings: 20 mM glutamine, 160 μg/mL ampicillin, 4 hours
Experimental: as §1

[8] = test system: Staphylococcus aureus, Edwardsiella tarda, Beta streptococcus, Pseudomonas aeruginosa, Escherichia coli, Vibrio alginolyticus and Vibrio parahaemolyticus; test: Plate counting of several species of bacteria with ampicillin and glutamine; type: cell-based; settings: 20 mM glutamine and ampicillin at double MIC for each strain, 4 hours
Experimental: (Staphylococcus aureus, B. streptococcus, Pseudomonas aeruginosa, Escherichia coli) or 30° C. (the others) for 16 hours.

[9] = test system: ampicillin-resistant Escherichia coli biofilm; test: Biofilm on PE-50 catheters in vitro, survival rate; type: cell-based; settings: 6 hours
Experimental: as §3
The test was divided into six groups: saline solution control, 20 mM glutamine, 160 μg/mL ampicillin, 160 μg/mL ampicillin plus 20 mM glutamine, 160 μg/mL ampicillin plus 20 mM glucose, 160 μg/mL ampicillin plus 20 mM glutamine and 20 mM glucose. The catheters were cultured in a shaker at 200 rpm at 37 for 6 hours. The bacterial biofilm was removed from catheters with sonication for 10 minutes. Serial dilutions and spot-plating were performed to determine the cell number. The bacterial survival rate was calculated as: viable counts in treatment group/viable counts in control group×100%.

NC(=O)CC[C@H](N)C(=O)O [glutamine]
sensitivity to four types of penicillins increased [1]: 71-1900 times | sensitivity to four types of penicillins increased ([2]; 20 mM glutamine with ampicillin 25 μg/mL, penicillin G 200 μg/mL, amoxicillin 20 μg/mL or carbenicillin 100 μg/mL): 38-1000 times | sensitivity to 4 kinds of antibiotics improved ([2]; 20 mM glutamine with tetracycline, erythromycin, clindamycin or rifampicin at 8 times of MIC): approximately 1.5 times | sensitivity to ampicillin increased ([2]; 20 mM glutamine, 160 μg/mL ampicillin): 1.75 times | sensitivity of antibiotic resistant bacteria to respective antibiotic [3]: improved the sensitivity of 6 species of antibiotic resistant bacteria to respective antibiotic | bacterial survival rate in catheter biofilm in comparison with saline control [4]: 88.24% | killing efficiency increase compared with the treatment without glutamine ([5]; 20 μg/mL ampicillin): 1.12 folds | killing efficiency increase compared with the treatment without glutamine ([5]; 40 μg/mL ampicillin): 1.57 folds | killing efficiency increase compared with the treatment without glutamine ([5]; 80 μg/mL ampicillin): 1.95 folds | elevated sensitivity of ampicillin-resistant bacteria to ampicillin ([5]; 160 μg/mL ampicillin, 4 h): about 200 folds | killing efficiency increase compared with the treatment without glutamine ([5]; 160 μg/mL ampicillin): 7.66 folds | killing efficiency increase ([5]; 160 μg/mL ampicillin, after 4 hours or more): 8-22 times | killing efficiency increase compared with the treatment without glutamine ([5]; 240 μg/mL ampicillin): 24.29 folds | killing efficiency increase compared with the treatment without glutamine ([5]; 320 μg/mL ampicillin): 137.78 folds | killing efficiency increase compared with the treatment without glutamine ([5]; 400 μg/mL ampicillin): 171.34 folds and 200 folds | bacterial content in kidneys [6]: 9113 cell/g | sensitivity to ampicillin increased [7]: 4-36 times | sensitivity of several species of bacteria to ampicillin [8]: improved generally | elimination of biofilm by single agent ([9]; 20 mM glutamine or 160 μg/mL ampicillin alone): did not eliminate the antibiotic-resistant bacterium biofilm | bacterial survival rate in biofilm (treatment group/saline control) ([9]; 20 mM glutamine, 160 μg/mL ampicillin, 20 mM glucose as present): 96.03%
